Measured values taken from BindingDB's records for doi:10.1016/j.ejmech.2008.03.019 (Institute of Pharmacology of The Polish Academy of Sciences, 2008).

Molecular target: T1, 5-hydroxytryptamine receptor 1A (Rattus norvegicus, UniProt P19327)
T1 sequence (P19327 whole entry): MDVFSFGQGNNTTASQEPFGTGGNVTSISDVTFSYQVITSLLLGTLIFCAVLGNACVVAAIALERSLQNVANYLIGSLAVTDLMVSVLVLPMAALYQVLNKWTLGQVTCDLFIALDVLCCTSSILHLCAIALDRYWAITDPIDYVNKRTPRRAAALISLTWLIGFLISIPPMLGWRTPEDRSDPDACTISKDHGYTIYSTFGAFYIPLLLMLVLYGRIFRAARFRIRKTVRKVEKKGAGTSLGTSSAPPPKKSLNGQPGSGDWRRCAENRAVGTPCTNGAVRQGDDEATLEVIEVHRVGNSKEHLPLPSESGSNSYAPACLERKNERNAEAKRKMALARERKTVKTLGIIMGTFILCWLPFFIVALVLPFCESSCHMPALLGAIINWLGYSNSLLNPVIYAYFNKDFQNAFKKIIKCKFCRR
Assay: Displacement of [3H]8-OH-DPAT from 5HT1A receptor in rat hippocampal membranes

- Ki: 331 nM
SMILES: CC1CC2(C)CC(=O)C1C1C(=O)N(OCCCN3CCN(c4ccccc4F)CC3)C(=O)C12 (stereo unspecified) [4-{3-[4-(2-Fluorophenyl)piperazin-1-yl]propoxy}-1,11-dimethyl-4-azatricyclo[5.2.2.0(2,6)]undecane-3,5,8-trione]
